Source: patent US20150087687A1 (priority 2012, published 2015)
Like-named read-outs stand apart in the source and are kept apart here.

Columns and labels:
cytochrome P450 1A2 [1] = target: T1, cytochrome P450 1A2 (Homo sapiens, UniProt P05177); experiment: metabolism by cytochrome P450 1A2; format: in vitro ADME; details: by oxidation
cytochrome P450 2C19 = cytochrome P450 2C19 (Homo sapiens, UniProt P33261); experiment: metabolism by cytochrome P450 2C19; format: in vitro ADME; details: by oxidation
Sequence of cytochrome P450 2C19 (P33261 whole entry): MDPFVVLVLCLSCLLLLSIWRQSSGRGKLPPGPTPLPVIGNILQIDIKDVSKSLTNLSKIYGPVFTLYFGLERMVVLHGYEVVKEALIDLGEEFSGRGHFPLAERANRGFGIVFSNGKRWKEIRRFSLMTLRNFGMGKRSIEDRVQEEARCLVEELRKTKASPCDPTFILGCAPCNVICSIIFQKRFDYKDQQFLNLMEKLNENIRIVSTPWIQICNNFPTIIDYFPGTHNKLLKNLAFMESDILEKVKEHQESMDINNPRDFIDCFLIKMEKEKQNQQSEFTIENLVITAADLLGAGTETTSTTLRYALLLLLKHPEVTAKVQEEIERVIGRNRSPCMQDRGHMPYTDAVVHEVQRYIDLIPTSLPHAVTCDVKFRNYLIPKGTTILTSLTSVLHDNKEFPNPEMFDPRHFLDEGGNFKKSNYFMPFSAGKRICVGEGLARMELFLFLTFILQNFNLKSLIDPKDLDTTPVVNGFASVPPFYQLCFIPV

[2] = test system: uridine glucuronyltransferases (UGT); experiment: metabolism by uridine glucuronyltransferases; format: in vitro ADME; details: direct conjugation, without initial cytochrome P450 oxidation; more polar metabolites
cytochrome P450 1A2 [3] = target: T1, cytochrome P450 1A2; experiment: inhibition of cytochrome P450 1A2; format: in vitro ADME
cytochrome P450 2C8 = cytochrome P450 2C8 (Homo sapiens, UniProt P10632); experiment: inhibition of cytochrome P450 2C8; format: in vitro ADME
Sequence of cytochrome P450 2C8 (P10632 whole entry): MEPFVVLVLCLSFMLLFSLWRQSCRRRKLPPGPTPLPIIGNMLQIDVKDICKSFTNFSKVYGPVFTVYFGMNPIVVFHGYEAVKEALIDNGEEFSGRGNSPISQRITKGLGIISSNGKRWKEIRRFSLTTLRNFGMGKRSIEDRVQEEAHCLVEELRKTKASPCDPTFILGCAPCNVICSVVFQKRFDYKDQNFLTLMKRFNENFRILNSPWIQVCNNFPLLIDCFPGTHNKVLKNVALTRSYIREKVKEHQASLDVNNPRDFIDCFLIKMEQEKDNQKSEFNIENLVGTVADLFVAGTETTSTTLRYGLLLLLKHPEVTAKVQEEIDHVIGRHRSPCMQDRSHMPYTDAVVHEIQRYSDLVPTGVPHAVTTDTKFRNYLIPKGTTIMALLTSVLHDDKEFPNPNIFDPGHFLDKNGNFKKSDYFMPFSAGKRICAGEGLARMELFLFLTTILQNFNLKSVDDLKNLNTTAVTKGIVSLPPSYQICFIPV

NEK9 = NEK9 (Homo sapiens, UniProt Q8TD19); experiment: targeting of kinases (FIG. 4): NEK9; format: binding
Sequence of NEK9 (Q8TD19 whole entry, species assumed): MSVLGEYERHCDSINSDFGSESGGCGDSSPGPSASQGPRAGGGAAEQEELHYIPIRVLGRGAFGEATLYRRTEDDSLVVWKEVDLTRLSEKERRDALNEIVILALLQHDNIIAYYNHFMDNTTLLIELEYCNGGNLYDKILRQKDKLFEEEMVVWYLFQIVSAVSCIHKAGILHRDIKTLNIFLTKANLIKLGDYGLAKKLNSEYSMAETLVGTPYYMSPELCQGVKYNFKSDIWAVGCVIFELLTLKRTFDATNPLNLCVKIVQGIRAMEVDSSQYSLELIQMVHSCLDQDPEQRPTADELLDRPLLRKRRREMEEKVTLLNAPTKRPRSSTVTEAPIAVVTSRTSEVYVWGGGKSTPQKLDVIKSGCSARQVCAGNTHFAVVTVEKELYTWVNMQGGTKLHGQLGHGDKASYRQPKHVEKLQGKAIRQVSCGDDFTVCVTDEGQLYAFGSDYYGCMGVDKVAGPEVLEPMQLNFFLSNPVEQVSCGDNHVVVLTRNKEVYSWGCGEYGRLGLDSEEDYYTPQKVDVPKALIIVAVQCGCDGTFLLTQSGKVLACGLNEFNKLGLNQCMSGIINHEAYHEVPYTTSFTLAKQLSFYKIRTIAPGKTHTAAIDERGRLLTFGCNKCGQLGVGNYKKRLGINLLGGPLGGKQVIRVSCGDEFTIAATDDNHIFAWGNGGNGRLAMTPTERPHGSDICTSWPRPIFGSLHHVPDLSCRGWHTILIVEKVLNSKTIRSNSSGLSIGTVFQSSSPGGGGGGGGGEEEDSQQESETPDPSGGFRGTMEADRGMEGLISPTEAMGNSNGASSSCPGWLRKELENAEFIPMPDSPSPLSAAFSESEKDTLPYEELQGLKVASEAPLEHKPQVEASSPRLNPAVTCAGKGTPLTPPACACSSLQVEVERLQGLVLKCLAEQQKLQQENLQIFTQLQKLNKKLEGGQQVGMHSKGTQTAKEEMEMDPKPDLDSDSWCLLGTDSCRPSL

STK25 = STK25 (Homo sapiens, UniProt O00506); experiment: targeting of kinases (FIG. 4): STK25; format: binding
Sequence of STK25 (O00506 whole entry, species assumed): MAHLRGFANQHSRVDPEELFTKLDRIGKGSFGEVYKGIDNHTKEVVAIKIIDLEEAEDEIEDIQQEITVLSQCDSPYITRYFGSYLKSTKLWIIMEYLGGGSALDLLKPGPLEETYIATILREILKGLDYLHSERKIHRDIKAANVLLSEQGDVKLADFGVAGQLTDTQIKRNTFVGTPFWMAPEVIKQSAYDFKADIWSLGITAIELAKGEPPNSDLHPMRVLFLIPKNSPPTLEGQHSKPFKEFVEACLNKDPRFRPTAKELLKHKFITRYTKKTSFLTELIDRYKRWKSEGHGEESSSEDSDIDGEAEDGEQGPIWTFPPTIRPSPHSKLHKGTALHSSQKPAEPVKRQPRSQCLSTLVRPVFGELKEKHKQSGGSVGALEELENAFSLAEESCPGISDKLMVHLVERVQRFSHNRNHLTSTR

ERBB3 = ERBB3 (Homo sapiens, UniProt P21860); experiment: targeting of kinases (FIG. 4): ERBB3; format: binding
Sequence of ERBB3 (P21860 20-1342, species assumed): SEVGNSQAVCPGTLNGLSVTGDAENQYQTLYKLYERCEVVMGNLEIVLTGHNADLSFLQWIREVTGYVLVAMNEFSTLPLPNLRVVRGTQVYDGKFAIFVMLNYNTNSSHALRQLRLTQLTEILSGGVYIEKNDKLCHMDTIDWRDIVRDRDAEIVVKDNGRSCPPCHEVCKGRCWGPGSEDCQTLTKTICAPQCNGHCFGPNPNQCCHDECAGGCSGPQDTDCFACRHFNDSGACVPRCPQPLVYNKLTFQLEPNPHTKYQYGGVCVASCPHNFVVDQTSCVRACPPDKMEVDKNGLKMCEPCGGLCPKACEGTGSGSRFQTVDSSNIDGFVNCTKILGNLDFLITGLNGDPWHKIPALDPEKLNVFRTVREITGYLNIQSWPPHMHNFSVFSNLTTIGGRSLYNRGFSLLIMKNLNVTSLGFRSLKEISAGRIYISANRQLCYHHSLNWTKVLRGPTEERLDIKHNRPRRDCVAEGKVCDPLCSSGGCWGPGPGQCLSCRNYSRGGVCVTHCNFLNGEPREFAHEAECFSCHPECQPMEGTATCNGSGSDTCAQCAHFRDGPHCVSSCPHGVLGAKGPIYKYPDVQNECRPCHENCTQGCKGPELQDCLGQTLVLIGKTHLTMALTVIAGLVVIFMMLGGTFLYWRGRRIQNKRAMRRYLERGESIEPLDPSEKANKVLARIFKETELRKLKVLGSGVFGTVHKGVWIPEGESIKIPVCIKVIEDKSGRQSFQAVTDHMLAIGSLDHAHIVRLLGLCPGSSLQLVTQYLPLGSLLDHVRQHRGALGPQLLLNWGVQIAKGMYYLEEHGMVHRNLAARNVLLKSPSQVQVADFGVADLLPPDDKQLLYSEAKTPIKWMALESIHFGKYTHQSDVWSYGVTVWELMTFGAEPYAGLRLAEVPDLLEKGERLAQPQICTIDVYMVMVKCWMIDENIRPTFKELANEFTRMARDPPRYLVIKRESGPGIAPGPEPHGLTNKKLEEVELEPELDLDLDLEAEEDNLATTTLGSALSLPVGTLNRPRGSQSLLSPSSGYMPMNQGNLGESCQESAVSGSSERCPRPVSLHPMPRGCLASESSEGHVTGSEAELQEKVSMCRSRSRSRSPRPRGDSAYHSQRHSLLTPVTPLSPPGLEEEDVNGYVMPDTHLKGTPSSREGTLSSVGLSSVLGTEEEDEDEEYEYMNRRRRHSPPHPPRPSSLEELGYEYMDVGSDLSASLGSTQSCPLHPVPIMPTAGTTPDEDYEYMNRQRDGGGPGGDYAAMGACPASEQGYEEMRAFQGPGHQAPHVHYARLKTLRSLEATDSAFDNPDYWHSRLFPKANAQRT

[4] = test system: malignant cell lines, particularly AML cell lines; experiment: viability of cancer cell lines (Example 2); format: cell-based; details: 0.1-100 μM, 24 or 48 hours, FIG. 1-3
Procedure: Viability at 48 hours is shown by (♦); viability at 24 hours is shown by (▪).

[5] = test system: cell lines and primary cancer cells; details: cited from earlier work
NB4 = details: AML; cited from earlier work
HL-60 = details: AML; cited from earlier work
U937 = details: AML; cited from earlier work
K562 [6] = details: CML; cited from earlier work
HUVEC [7] = details: cited from earlier work
ECV304 [8] = details: cited from earlier work
primary AML = details: cited from earlier work
[9] = cited from earlier work
murine cancer models = details: mouse, in vivo; cited from earlier work
AML NOD/SCID model = details: cited from earlier work
[10] = test system: HT-29 colorectal xenografts; details: mouse, in vivo; cited from earlier work
Lewis lung sarcoma = details: mouse, in vivo; cited from earlier work
[11] = test system: Walker 256 carcino-sarcoma; details: in vivo; cited from earlier work
AML cell lines = details: cited from earlier work
[12] = test system: HT-29 colorectal cell lines; details: cited from earlier work
primary AML cells = details: cited from earlier work
AML cells = AML cells (DKO insensitive to chemotherapy); cited from earlier work
K562 cells = details: cited from earlier work
mitochondria = details: effects on mitochondria; cited from earlier work
HL-60 myeloid cells = details: cited from earlier work
[13] = test system: human myeloblastic leukemic cells; details: cited from earlier work
W256 cells = details: cited from earlier work
microtubule assembly = details: cited from earlier work
[14] = target: glycogen synthase kinase-3β (GSK-3β) (Homo sapiens, UniProt P49841); details: concentration at which inhibition is stated; cited from earlier work
Sequence of glycogen synthase kinase-3β (GSK-3β) (P49841 whole entry, species assumed): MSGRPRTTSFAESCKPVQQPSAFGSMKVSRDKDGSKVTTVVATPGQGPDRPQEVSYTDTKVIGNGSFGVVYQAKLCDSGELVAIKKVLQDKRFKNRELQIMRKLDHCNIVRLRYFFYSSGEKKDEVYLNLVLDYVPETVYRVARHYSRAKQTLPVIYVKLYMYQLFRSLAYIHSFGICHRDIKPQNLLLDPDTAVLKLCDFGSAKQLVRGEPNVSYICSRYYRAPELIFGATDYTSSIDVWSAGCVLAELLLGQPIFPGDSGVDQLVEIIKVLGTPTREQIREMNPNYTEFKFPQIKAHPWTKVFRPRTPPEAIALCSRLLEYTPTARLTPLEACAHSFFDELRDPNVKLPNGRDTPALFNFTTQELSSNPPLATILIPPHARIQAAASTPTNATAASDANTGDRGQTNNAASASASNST

HL-60 cells = details: cited from earlier work
K562 [15] = details: cited from earlier work
CD11b = details: promoting myeloid differentiation; cited from earlier work
Jurkat cells = details: inducing phosphorylation of c-Myb; cited from earlier work
VEGF = details: antiangiogenic effects; cited from earlier work
VCAM-1 = details: antiangiogenic effects; cited from earlier work
HUVEC [16] = details: antiangiogenic effects; cited from earlier work
ECV304 [17] = details: antiangiogenic effects; cited from earlier work
[18] = cited from earlier work; remark: listed apart in the source
[19] = test system: hepatic cytochrome P450 (CYP); details: cited from earlier work
[20] = cited from earlier work; remark: listed apart in the source
[21] = rats; cited from earlier work
[22] = cited from earlier work; remark: listed apart in the source
[23] = cited from earlier work; remark: listed apart in the source
[24] = test system: chronic myelogenous leukemia (CML); details: cited from earlier work
Bcl-2 = details: induces apoptosis; cited from earlier work
[25] = test system: negative cell cycle regulators p21 and p27; details: induces cell cycle arrest; cited from earlier work
[26] = rat; cited from earlier work

T1 sequence (P05177 whole entry): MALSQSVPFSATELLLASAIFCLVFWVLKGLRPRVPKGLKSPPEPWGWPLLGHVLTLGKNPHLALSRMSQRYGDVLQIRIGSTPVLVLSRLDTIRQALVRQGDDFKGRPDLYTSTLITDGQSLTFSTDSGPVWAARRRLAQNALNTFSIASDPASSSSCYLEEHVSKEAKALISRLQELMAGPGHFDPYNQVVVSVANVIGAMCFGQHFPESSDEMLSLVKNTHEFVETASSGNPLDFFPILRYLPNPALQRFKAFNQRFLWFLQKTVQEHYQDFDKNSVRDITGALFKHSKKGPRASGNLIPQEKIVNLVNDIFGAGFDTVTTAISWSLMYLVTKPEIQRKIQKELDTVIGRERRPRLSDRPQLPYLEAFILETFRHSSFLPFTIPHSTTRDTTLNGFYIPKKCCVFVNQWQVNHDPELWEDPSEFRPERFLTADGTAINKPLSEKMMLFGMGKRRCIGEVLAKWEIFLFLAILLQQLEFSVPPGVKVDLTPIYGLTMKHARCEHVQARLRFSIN

CN1C(=O)/C(=C2/C(=O)Nc3ccccc32)c2ccccc21 [meisoindigo, 3-(1,2-dihydro-2-oxo-3H-indol-3-ylidene)-1,3-dihydro-1-methyl-2H-indol-2-one]
metabolized by cytochrome P450 1A2 (cytochrome P450 1A2 [1]): metabolized | metabolized by cytochrome P450 2C19 (cytochrome P450 2C19): metabolized | metabolized by UGT [2]: metabolized | inhibits cytochrome P450 1A2 at (cytochrome P450 1A2 [3]): low micromolar concentrations | inhibits cytochrome P450 2C8 at (cytochrome P450 2C8): low micromolar concentrations | binding with NEK9 (NEK9): strongest binding | binding with STK25 (STK25): significant binding | binding with ERBB3 (ERBB3): significant binding | killing of malignant cell lines [4]: effective in killing | IC50 ([5]; cell lines and primary cancer cells): high-μM concentration range | active against cell lines and primary cancer cells [5]: active | activity against NB4 (NB4): activity | activity against HL-60 (HL-60): activity | activity against U937 (U937): activity | activity against K562 (K562 [6]): activity | activity against HUVEC (HUVEC [7]): activity | activity against ECV304 (ECV304 [8]): activity | activity against primary AML (primary AML): activity | water solubility [9]: water-soluble | efficacy in murine cancer models (murine cancer models): effective | spleen size (AML NOD/SCID model; AML NOD/SCID model): dose-dependent spleen size reduction | efficacy in AML NOD/SCID model (AML NOD/SCID model; mouse, in vivo): effective | efficacy in HT-29 colorectal xenografts [10]: effective | efficacy in Lewis lung sarcoma (Lewis lung sarcoma): effective | efficacy in Walker 256 carcino-sarcoma [11]: effective | cell cycle specific effect (AML cell lines): arrest in G(O)/G1 | cell cycle specific effect [12]: G2/M arrest | Bcl-2 (primary AML cells): downregulation | p21 (primary AML cells): upregulation | p27 (primary AML cells): upregulation | Bak (AML cells): upregulation | Bax (AML cells): upregulation | apoptosis mechanism (K562 cells): novel caspase-dependent pathway | Bax protein expression (mitochondria): no change | Bcl-2 protein expression (mitochondria): no change | Bid protein expression (mitochondria): no change | cleavage of PARP (HL-60 myeloid cells): stimulates the cleavage | cleavage of pro-caspase 3 (HL-60 myeloid cells): stimulates the cleavage | cleavage of pro-caspase 8 (HL-60 myeloid cells): stimulates the cleavage | cleavage of pro-caspase 9 (HL-60 myeloid cells): stimulates the cleavage | c-myb gene expression [13]: downregulation | differentiation [13]: promotes differentiation | DNA synthesis (W256 cells): inhibition | RNA synthesis (W256 cells): inhibition | microtubule assembly (microtubule assembly): inhibition | inhibition of GSK-3β at [14]: 5 to 50 nM | c-myc (HL-60 cells): decreases | β-catenin (HL-60 cells): decreases | c-myc (K562 [15]): not | CD11b (CD11b): upregulation | Ahi-1 (Jurkat cells): upregulation | VEGF protection (VEGF): decreased | VCAM-1 (VCAM-1): decreased | tubule formulation in HUVEC (HUVEC [16]): decreased | ECV304 apoptosis (ECV304 [17]): apoptosis | absorption ([18]; in vivo): rapidly absorbed | distribution ([18]; in vivo): widely distributed in the tissues | excretion ([18]; renal and biliary routes): renal excretion strongly predominating | sex differences in metabolism [19]: no sex differences | metabolic routes ([19]; hepatic cytochrome P450 (CYP)-mediated): N-demethylation and mono ring hydroxylation | interspecies differences in metabolism ([19]; rats, pigs, and humans): no major interspecies differences | human hepatic internal CL (Clint) [20]: ~83 mL/mg/kg | single dose LD50 [21]: 3900 mg/kg | target organs ([22]; dog): liver and the gastrointestinal tract | well tolerated dose ([22]; dogs, p.o. for 6 months): 10 mg/kg/day | mild nausea and vomiting ([23]; clinical trials, single agent or in combination with chemotherapy): 30% | cardiac, hepatic, or renal adverse effects ([23]; clinical trials): no cardiac, hepatic, or renal adverse effects | course of nausea and vomiting ([23]; clinical trials): spontaneously disappeared in two weeks | tolerability ([23]; several patient populations): well tolerated | complete hematologic response ([24]; 50-200 mg/d p.o.): 33 % of patients | partial hematologic response ([24]; 50-200 mg/d p.o.): 58 % of patients | reduction of leukocyte count (median) ([24]; 50-200 mg/d p.o.): 31 days | reduction of splenomegaly (median) ([24]; 50-200 mg/d p.o.): 25 days | effect with hydroxyurea ([24]; combination with hydroxyurea): synergistic effect | Bcl-2 (Bcl-2): suppression | p21 [25]: upregulation | p27 [25]: upregulation | target organs [26]: liver and the gastrointestinal tract
